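Following 48 hours of exposure in 96-well plates, responses at five concentrations were used to interpolate endpoints linearly. GI50: concentration for 50% inhibition of growth.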 The source made the active and inactive calls. Cut-off read from the data, not from the text of the source: active = GI50 up to about 1.1 µM and inactive = higher.
Tests used:
Assay in all cases: NCI anticancer screen, dose series, 48 h
[1] = test system: HCT-116
[2] = test system: SF-539
[3] = test system: HOP-92
[4] = test system: PC-3
[5] = test system: SW-620
[6] = test system: COLO 205
[7] = test system: A498
[8] = test system: UACC-257
[9] = test system: KM12
[10] = test system: ACHN
[11] = test system: MOLT-4
[12] = test system: NCI-H460
[13] = test system: SNB-75
[14] = test system: CCRF-CEM
[15] = test system: TK-10
[16] = test system: NCI-H23
[17] = test system: RXF 393
[18] = test system: U-251
[19] = test system: IGROV-1
[20] = test system: LOX IMVI

Structure (SMILES) | GI50 [1] | GI50 [2] | GI50 [3] | GI50 [4] | GI50 [5] | GI50 [6] | GI50 [7] | GI50 [8] | GI50 [9] | GI50 [10] | GI50 [11] | GI50 [12] | GI50 [13] | GI50 [14] | GI50 [15] | GI50 [16] | GI50 [17] | GI50 [18] | GI50 [19] | GI50 [20]
O=C1Oc2ccccc2C(=O)/C1=C/N1C(=O)N/C(=C\c2ccccc2O)C1=O | 36.6 µM (inactive) | 59.8 µM (inactive) | 11 µM (inactive) | 43.6 µM (inactive) | > 90.8 µM (inactive) | 62.5 µM (inactive) | 42.6 µM (inactive) | 67.5 µM (inactive) | 56.8 µM (inactive) | 47.6 µM (inactive) | 41.2 µM (inactive) | 35.2 µM (inactive) | > 78.5 µM (inactive) | > 100 µM (inactive) | 60.5 µM (inactive) | 59.8 µM (inactive) | 37.5 µM (inactive) | 57.7 µM (inactive) | 48.8 µM (inactive) | 34.1 µM (inactive)
CN(Cc1cc(Cl)cc(Cl)c1)CC(C(=O)c1ccccc1)c1ccccc1 (stereo not given) | 0.689 µM (active) | 5.77 µM (inactive) | 7.33 µM (inactive) | 4.91 µM (inactive) | 0.326 µM (active) | 3.92 µM (inactive) | 14.5 µM (inactive) | 2.56 µM (inactive) | 3.78 µM (inactive) | 0.445 µM (active) | 0.684 µM (active) | 27.5 µM (inactive) | 7.48 µM (inactive) | < 0.0439 µM (active) | 6.37 µM (inactive) | 1.7 µM (inactive) | 4 µM (inactive) | 1.38 µM (inactive) | 26.7 µM (inactive) | 1.65 µM (inactive)
COc1nc(N)c(NC2OC(CO)C(O)C2O)c(=O)[nH]1 (stereo not given) | > 100 µM (inactive) | > 100 µM (inactive) | > 100 µM (inactive) | > 100 µM (inactive) | > 100 µM (inactive) | > 100 µM (inactive) | > 100 µM (inactive) | > 100 µM (inactive) | > 100 µM (inactive) | > 100 µM (inactive) | > 100 µM (inactive) | > 100 µM (inactive) | > 100 µM (inactive) | > 100 µM (inactive) | > 100 µM (inactive) | > 100 µM (inactive) | > 100 µM (inactive) | > 100 µM (inactive) | > 100 µM (inactive) | > 100 µM (inactive)
COC(=O)C#Cc1ccc([N+](=O)[O-])cc1 | 1.15 µM (inactive) | 1.69 µM (inactive) | 2.05 µM (inactive) | 3.73 µM (inactive) | 1.19 µM (inactive) | 1.83 µM (inactive) | 9.91 µM (inactive) | 2.37 µM (inactive) | 1.8 µM (inactive) | 1.41 µM (inactive) | 0.659 µM (active) | 13.1 µM (inactive) | 3.14 µM (inactive) | 0.532 µM (active) | 1.89 µM (inactive) | 1.62 µM (inactive) | 1.9 µM (inactive) | 1.88 µM (inactive) | 1.81 µM (inactive) | 0.995 µM (active)
Cc1ccc(C2=Nn3c(nc4sc5c(c4c3=O)CCCC5)SC2)cc1 | > 100 µM (inactive) | > 100 µM (inactive) | > 100 µM (inactive) | > 100 µM (inactive) | > 100 µM (inactive) | > 100 µM (inactive) | > 100 µM (inactive) | > 100 µM (inactive) | > 100 µM (inactive) | > 100 µM (inactive) | > 100 µM (inactive) | > 100 µM (inactive) | 96.4 µM (inactive) | > 100 µM (inactive) | > 100 µM (inactive) | > 100 µM (inactive) | > 100 µM (inactive) | > 100 µM (inactive) | > 100 µM (inactive) | > 100 µM (inactive)
O=c1cc(NNc2ccccc2F)[nH]c(=O)[nH]1 | 16.9 µM (inactive) | 16.8 µM (inactive) | 15.7 µM (inactive) | 18.9 µM (inactive) | 18 µM (inactive) | 19.2 µM (inactive) | 59.8 µM (inactive) | 17.7 µM (inactive) | 15.3 µM (inactive) | 18.3 µM (inactive) | 23.4 µM (inactive) | 0.0667 µM (active) | 25.9 µM (inactive) | 17.5 µM (inactive) | 14.4 µM (inactive) | 17.3 µM (inactive) | 1.26 µM (inactive) | 17.7 µM (inactive) | 16.7 µM (inactive) | 16 µM (inactive)
Cc1ncc(-c2nnnn2-c2ccccc2)c(C(=O)O)n1 | > 100 µM (inactive) | > 100 µM (inactive) | > 100 µM (inactive) | > 100 µM (inactive) | > 100 µM (inactive) | > 100 µM (inactive) | > 100 µM (inactive) | > 100 µM (inactive) | > 100 µM (inactive) | > 100 µM (inactive) | > 100 µM (inactive) | > 100 µM (inactive) | > 100 µM (inactive) | > 100 µM (inactive) | > 100 µM (inactive) | > 100 µM (inactive) | > 100 µM (inactive) | > 100 µM (inactive) | > 100 µM (inactive) | > 100 µM (inactive)
Cc1cc(NC(=O)NC(=O)c2ccccc2N)ccc1Oc1ncc(Br)cn1 | < 0.0124 µM (active) | < 0.011 µM (active) | 0.0159 µM (active) | < 0.01 µM (active) | < 0.0103 µM (active) | < 0.0104 µM (active) | < 0.0802 µM (active) | 0.0655 µM (active) | < 0.0105 µM (active) | 0.11 µM (active) | < 0.0135 µM (active) | < 0.0112 µM (active) | 0.0117 µM (active) | 0.0111 µM (active) | 0.239 µM (active) | 0.0125 µM (active) | 0.0244 µM (active) | 0.0141 µM (active) | < 0.011 µM (active) | 0.0139 µM (active)
C/C=N\n1c(C)n[nH]c1=O | > 100 µM (inactive) | > 100 µM (inactive) | > 100 µM (inactive) | > 100 µM (inactive) | > 100 µM (inactive) | > 100 µM (inactive) | > 100 µM (inactive) | > 100 µM (inactive) | > 100 µM (inactive) | > 100 µM (inactive) | > 100 µM (inactive) | > 100 µM (inactive) | > 100 µM (inactive) | > 100 µM (inactive) | > 100 µM (inactive) | > 100 µM (inactive) | > 100 µM (inactive) | > 100 µM (inactive) | > 100 µM (inactive) | > 100 µM (inactive)
CCCCCc1c(Cl)nc(Cl)nc1Cl | 3.82 µM (inactive) | 16 µM (inactive) | 5.46 µM (inactive) | 8.99 µM (inactive) | 3.63 µM (inactive) | 7.85 µM (inactive) | 20.1 µM (inactive) | 13.9 µM (inactive) | 13.9 µM (inactive) | 21 µM (inactive) | 0.303 µM (active) | 19.5 µM (inactive) | 0.589 µM (active) | 0.195 µM (active) | 12.1 µM (inactive) | 3.18 µM (inactive) | 8.41 µM (inactive) | 9.27 µM (inactive) | 7.05 µM (inactive) | 0.471 µM (active)
COc1ccc(CCNC(=O)Cc2ccccc2CO)cc1OC | > 100 µM (inactive) | > 100 µM (inactive) | > 100 µM (inactive) | > 100 µM (inactive) | > 100 µM (inactive) | > 100 µM (inactive) | > 100 µM (inactive) | > 100 µM (inactive) | > 100 µM (inactive) | > 100 µM (inactive) | > 100 µM (inactive) | > 100 µM (inactive) | > 100 µM (inactive) | > 100 µM (inactive) | > 100 µM (inactive) | > 100 µM (inactive) | > 100 µM (inactive) | > 100 µM (inactive) | > 100 µM (inactive) | > 100 µM (inactive)
O=C1C2=Nc3ccccc3C(O)N2c2ccccc21 (stereo not given) | > 83.4 µM (inactive) | 49.3 µM (inactive) | > 100 µM (inactive) | > 86.9 µM (inactive) | > 100 µM (inactive) | 39.2 µM (inactive) | 18.7 µM (inactive) | 4.09 µM (inactive) | > 78.5 µM (inactive) | 5.62 µM (inactive) | > 87.5 µM (inactive) | 20.2 µM (inactive) | 23.6 µM (inactive) | > 92.7 µM (inactive) | > 100 µM (inactive) | 3.92 µM (inactive) | > 10 µM (inactive) | > 52.5 µM (inactive) | 40.2 µM (inactive) | 2.96 µM (inactive)
N#CC(C#N)[C@@H]1CCC=C(Sc2ccccc2)[C@H]1Sc1ccccc1 | 2.11 µM (inactive) | 2 µM (inactive) | 3.39 µM (inactive) | 3.86 µM (inactive) | 2.42 µM (inactive) | 2.2 µM (inactive) | 13.5 µM (inactive) | 2.26 µM (inactive) | 3 µM (inactive) | 2.34 µM (inactive) | 2.38 µM (inactive) | 3.56 µM (inactive) | 5.08 µM (inactive) | 1.57 µM (inactive) | 1.86 µM (inactive) | 3.96 µM (inactive) | 1.83 µM (inactive) | 5.81 µM (inactive) | 2.29 µM (inactive) | 2.46 µM (inactive)
O=C(O)C1OC(n2cc(F)c(=O)[nH]c2=O)CC1O (stereo not given) | 23.1 µM (inactive) | 1.87 µM (inactive) | 7.13 µM (inactive) | 51.8 µM (inactive) | > 86.5 µM (inactive) | 61.5 µM (inactive) | 10.1 µM (inactive) | > 100 µM (inactive) | > 95.9 µM (inactive) | 2.46 µM (inactive) | 7.73 µM (inactive) | 0.447 µM (active) | 6.11 µM (inactive) | 3.44 µM (inactive) | > 100 µM (inactive) | 38.7 µM (inactive) | > 87.9 µM (inactive) | 35.2 µM (inactive) | > 100 µM (inactive) | 8.87 µM (inactive)
